Laboratory results as given in US20230108906A1, “SUBSTITUTED BICYCLIC AND TRICYCLIC UREAS AND AMIDES, ANALOGUES THEREOF, AND METHODS USING SAME” (Arbutus Biopharma Corporation, priority 2019, published 2023).
pEC50: −log10 of the molar value.

tested on: HBV rcDNA in HepDE19 cells; experiment: HepDE19 assay with bDNA quantitation of HBV rcDNA; type: cell-based, hepatitis B virus (HBV); conditions: Hepatitis B virus, HepDE19, 168 h, inhibition of rcDNA formation in HepDE19 cells (HepG2 derived), Tet-free medium, 7 day incubation, Quantigene 2.0 bDNA readout, top concentration 25 μM; read-out: DE-19bDNA EC50
In short: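 Cytotoxicity run on replicate plates (5,000 cells/well, 4 days, ATP luminescence, CC50), while antiviral plates (50,000 cells/well) received compound for 7 days after tetracycline withdrawal to induce HBV replication. Top dose 25 μM, 8 points, 0.5% DMSO; rcDNA by branched-DNA assay, % inhibition fitted (4-parameter) for EC50 and EC90.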

With `CN(C(=O)Nc1ccc(F)c(Cl)c1)C1COCc2[nH]c(=O)c3c(F)c(F)ccc3c21` (centres unmarked) [Compound 35, 3-(3-Chloro-4-fluorophenyl)-1-(7,8-difluoro-6-oxo-1,4,5,6-tetrahydro-2H-pyrano[3,4-c]isoquinolin-1-yl)-1-methylurea] as the compound, how does the pEC50 read?
The pEC50 was 6.72.

`CCN(C(=O)Nc1ccc(F)c(C)c1)C1COCc2[nH]c(=O)c3cc(Cl)ccc3c21` (centres unmarked) [Compound 59, 1-(8-Chloro-6-oxo-1,4,5,6-tetrahydro-2H-pyrano[3,4-c]isoquinolin-1-yl)-1-ethyl-3-(4-fluoro-3-methylphenyl)urea] was tested. Which pEC50 did it give?
Its pEC50 is 7.70.

How did the pEC50 turn out when `CN(C(=O)Nc1ccc(F)c(Cl)c1)C1CS(=O)(=O)Cc2[nH]c(=O)c3cc(F)c(F)cc3c21` (single isomer, unassigned) [Compound 203, 3-(3-Chloro-4-fluorophenyl)-1-(8,9-difluoro-3,3-dioxido-6-oxo-1,4,5,6-tetrahydro-2H-thiopyrano[3,4-c]isoquinolin-1-yl)-1-methylurea] was run?
The pEC50 was 5.85.

`CN1Cc2[nH]c(=O)c3cc(F)c(F)cc3c2C(N(C)C(=O)Nc2ccc(F)c(C#N)c2)C1` (centres unmarked) [Compound 173, 3-(3-Cyano-4-fluorophenyl)-1-(8,9-difluoro-3-methyl-6-oxo-1,2,3,4,5,6-hexahydrobenzo[c][1,7]naphthyridin-1-yl)-1-methylurea] was tested. Which pEC50 did it give?
The pEC50 was 4.89.

`CN(C(=O)Nc1ccc(F)c(C#N)c1)[C@@H]1COCc2[nH]c(=O)c3cc(F)ccc3c21` (single isomer, unassigned) [Compound 64] was tested. Which pEC50 did it give?
The pEC50 was 7.70.

How did the pEC50 turn out when `Cc1cc(NC(=O)N(C)C2COCc3[nH]c(=O)c4cc(F)ccc4c32)ccc1F` (centres unmarked) [Compound 57, 3-(4-Fluoro-3-methylphenyl)-1-(8-fluoro-6-oxo-1,4,5,6-tetrahydro-2H-pyrano[3,4-c]isoquinolin-1-yl)-1-methylurea] was run?
The pEC50 was 8.00.

With `CC(C)CN(C(=O)Nc1ccc(F)c(Cl)c1)C1COCc2[nH]c(=O)c3ccccc3c21` (centres unmarked) [Compound 30, 3-(3-Chloro-4-fluorophenyl)-1-isobutyl-1-(6-oxo-1,4,5,6-tetrahydro-2H-pyrano[3,4-c]isoquinolin-1-yl)urea] as the compound, how does the pEC50 read?
Its pEC50 is 7.70.

`CN(C(=O)Nc1ccc(F)c(C(F)F)c1)[C@@H]1COCc2nc(OCCN)c3cc(F)c(F)cc3c21` [Compound 252, (S)-1-(6-(2-Aminoethoxy)-8,9-difluoro-1,4-dihydro-2H-pyrano[3,4-c]isoquinolin-1-yl)-3-(3-(difluoromethyl)-4-fluorophenyl)-1-methylurea] was tested. Which pEC50 did it give?
The pEC50 was 7.70.

With `COc1nc2c(c3cc(F)c(F)cc13)[C@H](N(C)C(=O)Nc1ccc(F)c(Cl)c1)COC2` [Compound 244, (S)-3-(3-Chloro-4-fluorophenyl)-1-(8,9-difluoro-6-methoxy-1,4-dihydro-2H-pyrano[3,4-c]isoquinolin-1-yl)-1-methylurea] as the compound, how does the pEC50 read?
The pEC50 was 7.10.

`CCN(C(=O)Nc1ccc(F)c(Cl)c1)[C@@H]1COCc2[nH]c(=O)c3cc(F)ccc3c21` (single isomer, unassigned) [Compound 87] was tested. Which pEC50 did it give?
The pEC50 was 8.00.

same assay, conditions: Hepatitis B virus, HepDE19, 168 h, read-out: DE-19bDNA EC50 (uM), inhibition of rcDNA formation in HepDE19 cells (HepG2 derived), Tet-free medium, 7 day incubation, Quantigene 2.0 bDNA readout, top concentration 25 μM

Which EC50 does the source give for `COc1ccc(NC(=O)N(C)[C@@H]2COCc3[nH]c(=O)c4cc(F)c(F)cc4c32)cc1Cl` [Compound 147, (S)-3-(3-Chloro-4-methoxyphenyl)-1-(8,9-difluoro-6-oxo-1,4,5,6-tetrahydro-2H-pyrano[3,4-c]isoquinolin-1-yl)-1-methylurea] here?
The EC50 was 0.14 µM.

same assay, conditions: inhibition of rcDNA formation in HepDE19 cells (HepG2 derived), Tet-free medium, 7 day incubation, Quantigene 2.0 bDNA readout, top concentration 25 μM; read-out: DE-19bDNA EC50

With `CN(C(=O)Nc1ccc(F)c(C#N)c1)C1C[S+]([O-])Cc2[nH]c(=O)c3cc(F)ccc3c21` (single isomer, unassigned) [Compound 201, 3-(3-Cyano-4-fluorophenyl)-1-(8-fluoro-3-oxido-6-oxo-1,4,5,6-tetrahydro-2H-thiopyrano[3,4-c]isoquinolin-1-yl)-1-methylurea] as the compound, how does the pEC50 read?
Its pEC50 is 5.44.

`CN(C(=O)Nc1ccc(F)c(Cl)c1)C1C[S+]([O-])Cc2[nH]c(=O)c3cc(F)c(F)cc3c21` (single isomer, unassigned) [Compound 210, 3-(3-Chloro-4-fluorophenyl)-1-(8,9-difluoro-3-oxido-6-oxo-1,4,5,6-tetrahydro-2H-thiopyrano[3,4-c]isoquinolin-1-yl)-1-methylurea] was tested. Which pEC50 did it give?
Its pEC50 is 5.15.

With `CN(C(=O)Nc1ccc(F)c(F)c1)C1CCCc2[nH]c(=O)c3c(c21)CCCC3` (single isomer, unassigned) [Compound 48, 3-(3,4-Difluorophenyl)-1-methyl-1-(6-oxo-1,2,3,4,5,6,7,8,9,10-decahydrophenanthridin-1-yl)urea] as the compound, how does the pEC50 read?
The pEC50 was 5.51.

With `CN(C(=O)Nc1ccc(F)c(Cl)c1)C1CN(CCO)Cc2[nH]c(=O)c3cc(F)c(F)cc3c21` (single isomer, unassigned) [Compound 180, 3-(3-Chloro-4-fluorophenyl)-1-(8,9-difluoro-3-(2-hydroxyethyl)-6-oxo-1,2,3,4,5,6-hexahydrobenzo[c][1,7]naphthyridin-1-yl)-1-methylurea] as the compound, how does the pEC50 read?
Its pEC50 is 5.85.

How did the pEC50 turn out when `CN1Cc2[nH]c(=O)c3cc(F)ccc3c2C(N(C)C(=O)Nc2ccc(F)c(Cl)c2)C1` (single isomer, unassigned) [Compound 156, 3-(3-Chloro-4-fluorophenyl)-1-(8-fluoro-3-methyl-6-oxo-1,2,3,4,5,6-hexahydrobenzo[c][1,7]naphthyridin-1-yl)-1-methylurea] was run?
Its pEC50 is 6.38.

With `CN(C(=O)Nc1cc(F)c(F)c(F)c1)C1COCc2[nH]c(=O)c3cc(F)c(F)cc3c21` (single isomer, unassigned) [Compound 133, 1-(8,9-Difluoro-6-oxo-1,4,5,6-tetrahydro-2H-pyrano[3,4-c]isoquinolin-1-yl)-1-methyl-3-(3,4,5-trifluorophenyl)urea] as the compound, how does the pEC50 read?
Its pEC50 is 7.70.

With `CN(C(=O)Nc1ccc(F)c(Cl)c1)C1C[S+]([O-])Cc2[nH]c(=O)c3cc(F)ccc3c21` (single isomer, unassigned) [Compound 194, 3-(3-Chloro-4-fluorophenyl)-1-(8-fluoro-3-oxido-6-oxo-1,4,5,6-tetrahydro-2H-thiopyrano[3,4-c]isoquinolin-1-yl)-1-methylurea] as the compound, how does the pEC50 read?
The pEC50 was ≤ 4.60.

`CN(C(=O)Nc1ccc(F)c(Cl)c1)C1COCc2nc(NCCN)c3cc(F)c(F)cc3c21` (single isomer, unassigned) [Compound 249] was tested. Which pEC50 did it give?
The pEC50 was 5.08.

With `CN(C(=O)Nc1ccc(F)c(C#N)c1)C1CSCc2[nH]c(=O)c3cc(F)ccc3c21` (single isomer, unassigned) [Compound 185, 3-(3-Cyano-4-fluorophenyl)-1-(8-fluoro-6-oxo-1,4,5,6-tetrahydro-2H-thiopyrano[3,4-c]isoquinolin-1-yl)-1-methylurea] as the compound, how does the pEC50 read?
The pEC50 was 5.48.

How did the pEC50 turn out when `CN(C(=O)Nc1ccc(F)c(Cl)c1)C1CSCc2[nH]c(=O)c3cc(F)c(F)cc3c21` (single isomer, unassigned) [Compound 187, 3-(3-Chloro-4-fluorophenyl)-1-(8,9-difluoro-6-oxo-1,4,5,6-tetrahydro-2H-thiopyrano[3,4-c]isoquinolin-1-yl)-1-methylurea] was run?
The pEC50 was 6.05.

How did the pEC50 turn out when `CN(C(=O)Nc1cc(F)c(F)c(Cl)c1)C1COCc2[nH]c(=O)c3cc(F)ccc3c21` (single isomer, unassigned) [Compound 108, 3-(3-Chloro-4,5-difluorophenyl)-1-(8-fluoro-6-oxo-1,4,5,6-tetrahydro-2H-pyrano[3,4-c]isoquinolin-1-yl)-1-methylurea] was run?
The pEC50 was 7.70.

same assay, conditions: read-out: DE-19bDNA EC50; inhibition of rcDNA formation in HepDE19 cells (HepG2 derived), Tet-free medium, 7 day incubation, Quantigene 2.0 bDNA readout, top concentration 25 μM

How did the pEC50 turn out when `CN(C(=O)N1Cc2ccc(C(F)(F)F)cc2C1)C1CNCc2[nH]c(=O)c3cc(F)c(F)cc3c21` (single isomer, unassigned) [Compound 232, N-(8,9-Difluoro-6-oxo-1,2,3,4,5,6-hexahydrobenzo[c][1,7]naphthyridin-1-yl)-N-methyl-5-(trifluoromethyl)isoindoline-2-carboxamide] was run?
Its pEC50 is 4.70.
